From patent US9469665B2, “Compound having lysophosphatidylserine receptor function modulation activity” (THE UNIVERSITY OF TOKYO, priority 2013, dated 2016) come the findings set out here.

Where a name gives a salt, the structure may show the parent alone.

As to `CCCCCCCC/C=C\CCCCCCCC(=O)OC[C@H]1OCCC[C@@H]1OP(=O)(O)OC[C@H](N)C(=O)O` (as salt: TFA) [Example 20, (9Z)-Octadeca-9-enoic acid (2R,3S)-3-[((2S)-2-amino-2-carboxy-ethoxy)-hydroxy-phosphoryloxy]-tetrahydro-pyran-2-ylmethyl ester], the melting point (commonly the temperature of the solid-liquid transition) was 70 to 80 °C.

For `CCCCCCCCCCCOc1ccccc1CCC(=O)OC[C@H]1OCCC[C@@H]1OP(=O)(O)OC[C@H](N)C(=O)O` (as salt: TFA) [Example 21, (2S)-2-amino-3-(hydroxyl-{(2R,3S)-2-[3-(2-undecyloxy-phenyl)-propionyloxymethyl]-tetrahydro-pyran-3-yloxy}-phosphoryloxy)-propionic acid], the melting point is 70 to 86 °C.

The compound `C[C@H](OP(=O)(O)OC[C@H]1OCCC[C@@H]1OC(=O)CCc1ccccc1OCc1cccc(Oc2ccccc2)c1)[C@H](N)C(=O)O` (as salt: TFA) [Example 27, (2S,3S)-2-amino-3-[hydroxyl-((2R,3S)-3-{3-[2-(3-phenoxy-benzyloxy)-phenyl]-propionyloxy}-tetrahydro-pyran-2-ylmethoxy)-phosphoryloxy]-butyric acid] yielded a melting point of 75 to 86 °C.

For `C[C@H](OP(=O)(O)OC[C@H]1OCCC[C@H]1OC(=O)CCc1ccccc1OCc1cccc(Oc2ccccc2)c1)[C@H](N)C(=O)O` (as salt: TFA) [Example 28, (2S,3S)-2-amino-3-[hydroxyl-((2R,3R)-3-{3-[2-(3-phenoxy-benzyloxy)-phenyl]-propionyloxy}-tetrahydro-pyran-2-ylmethoxy)-phosphoryloxy]-butyric acid], the melting point is 62 to 72 °C.

In turn, `C[C@H](OP(=O)(O)O[C@H]1CCCO[C@@H]1COC(=O)CCc1ccccc1OCc1cccc(Oc2ccccc2)c1)[C@H](N)C(=O)O` (as salt: TFA) [Example 29, (2S,3S)-2-amino-3-[hydroxy-((2R,3S)-2-{3-[2-(3-phenoxybenzyloxy)-phenyl]-propionyloxymethyl}-tetrahydro-pyran-3-yloxy)-phosphoryloxy]-butyric acid] displayed a melting point of 42 to 54 °C.

For the compound `C[C@H](OP(=O)(O)O[C@@H]1CCCO[C@@H]1COC(=O)CCc1ccccc1OCc1cccc(Oc2ccccc2)c1)[C@H](N)C(=O)O` (as salt: TFA) [Example 30, (2S,3S)-2-amino-3-[hydroxy-((2R,3R)-2-{3-[2-(3-phenoxy-benzyloxy)-phenyl]-propionyloxymethyl}-tetrahydro-pyran-3-yloxy)-phosphoryloxy]-butyric acid], the melting point lay in the range of 52 to 60 °C.

Compound `COC[C@H](COC(=O)CCc1ccccc1OCc1cccc(Oc2ccccc2)c1)OP(=O)(O)OC[C@H](N)C(=O)O` (as salt: TFA) [Example 31, (2S)-2-amino-3-[hydroxy-((1R)-1-methoxymethyl-2-{3-[2-(3-phenoxy-benzyloxy)-phenyl]-propionyloxy}-ethoxy)-phosphoryloxy]-propionic acid] showed a melting point of 51.5 to 53.5 °C.
